Among the data in ChEMBL document CHEMBL1153676, “Muscarinic receptor probes based on amine congeners of pirenzepine and telenzepine” (Bioorg Med Chem Lett, 1992) are Reduction, IC50 and Ki values, retold here.

The target of test [1] is T1, Muscarinic acetylcholine receptor M1 (Rattus norvegicus) (UniProt P08482).
T1 sequence (whole entry): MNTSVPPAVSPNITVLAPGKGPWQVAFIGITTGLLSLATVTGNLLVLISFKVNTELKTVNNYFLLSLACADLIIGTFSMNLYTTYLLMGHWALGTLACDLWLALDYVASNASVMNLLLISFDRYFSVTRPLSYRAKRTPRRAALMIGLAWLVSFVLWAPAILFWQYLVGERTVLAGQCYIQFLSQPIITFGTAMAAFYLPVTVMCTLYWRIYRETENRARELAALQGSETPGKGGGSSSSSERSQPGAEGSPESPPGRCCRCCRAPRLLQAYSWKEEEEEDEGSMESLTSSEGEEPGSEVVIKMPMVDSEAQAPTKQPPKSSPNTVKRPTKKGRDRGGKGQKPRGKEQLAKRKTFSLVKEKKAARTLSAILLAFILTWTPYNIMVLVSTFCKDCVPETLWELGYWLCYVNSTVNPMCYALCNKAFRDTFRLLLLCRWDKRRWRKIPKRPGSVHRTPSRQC
Kind of test: Percent reduction in specific binding of 0.5 nM [3H]N-methylscopolamine (NMS) to rat forebrain membranes following a 30 min pre-incubation at concentration of 0.5 uM. The note with it: Membrane. In kind it is cell membranes.

In test [2] the target is T2, Muscarinic acetylcholine receptor M1 (Rattus norvegicus, UniProt P08482).
T2 sequence (P08482 whole entry): T1 sequence (whole entry)
Put plainly: Inhibitory concentration was evaluated for irreversible inhibition at rat forebrain muscarinic receptor.

For test [3], the target named is T3, Muscarinic acetylcholine receptor M2 (Rattus norvegicus, UniProt P10980).
T3 sequence (P10980 whole entry): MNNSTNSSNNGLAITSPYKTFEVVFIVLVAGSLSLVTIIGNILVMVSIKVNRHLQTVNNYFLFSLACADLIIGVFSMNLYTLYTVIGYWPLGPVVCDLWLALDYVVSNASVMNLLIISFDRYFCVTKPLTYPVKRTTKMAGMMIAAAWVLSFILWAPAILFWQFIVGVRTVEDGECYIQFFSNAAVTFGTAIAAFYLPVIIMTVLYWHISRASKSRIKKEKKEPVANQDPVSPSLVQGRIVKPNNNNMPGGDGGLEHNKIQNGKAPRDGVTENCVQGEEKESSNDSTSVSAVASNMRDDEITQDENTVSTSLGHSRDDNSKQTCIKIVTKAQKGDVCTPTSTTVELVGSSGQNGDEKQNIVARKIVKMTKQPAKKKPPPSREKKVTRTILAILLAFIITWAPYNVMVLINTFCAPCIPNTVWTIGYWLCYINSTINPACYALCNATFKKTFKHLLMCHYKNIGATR
Put plainly: Inhibitory constant by the inhibition of [3H]N-methylscopolamine (NMS) binding to Muscarinic acetylcholine receptor M2 of rat heart.

Turning to `O=C1Nc2cccnc2N(C(=O)CN2CCN(CCCCCCCCCCNC(=S)Nc3cccc(N=C=S)c3)CC2)c2ccccc21`, the Reduction in test [1] turned out to be 76%. Inhibition in test [2] was half-maximal at 0.15 nM (IC50).

In the case of `Cc1scc2c1N(C(=O)CN1CCN(CCCCCCCCCCN)CC1)c1ccccc1NC2=O`, in test [3], the Ki (commonly a dissociation constant, usually derived from enzyme kinetics or from competition with a known ligand) is 3.7 nM.

In test [1], `O=C1Nc2cccnc2N(C(=O)CN2CCN(CCCCCCCCCNC(=S)Nc3cccc(N=C=S)c3)CC2)c2ccccc21` came in with a Reduction of 48.7%. With `O=C1Nc2cccnc2N(C(=O)CN2CCN(CCCCCCCCNC(=S)Nc3cccc(N=C=S)c3)CC2)c2ccccc21`, the Reduction in test [1] was determined as 51.1%.
